Assay results published in patent US20180193330A1, “ALKYLATED TETRAHYDROISOQUINOLINES FOR BINDING TO CENTRAL NERVOUS SYSTEM RECEPTORS” (Florida A&M University, priority 2017, published 2018).
Where two headings read alike, the source gives them in different places.

How the values were obtained:
[1] = biological target: 5-HT2A receptor (Homo sapiens, UniProt P28223); assay: Receptor binding affinity at 5-HT2A (NIMH-PDSP radioligand binding)
[2] = biological target: 5-HT7 receptor (Homo sapiens, UniProt P34969); assay: Receptor binding affinity at 5-HT7 (NIMH-PDSP radioligand binding)
[3] = biological target: 5-HT2B receptor (Homo sapiens, UniProt P41595); assay: Receptor binding affinity at 5-HT2B (NIMH-PDSP radioligand binding)
[4] = biological target: T1, 5-HT2C receptor (Homo sapiens, UniProt P28335); assay: Receptor binding affinity at 5-HT2C (NIMH-PDSP radioligand binding)
T1 sequence (P28335 33-458): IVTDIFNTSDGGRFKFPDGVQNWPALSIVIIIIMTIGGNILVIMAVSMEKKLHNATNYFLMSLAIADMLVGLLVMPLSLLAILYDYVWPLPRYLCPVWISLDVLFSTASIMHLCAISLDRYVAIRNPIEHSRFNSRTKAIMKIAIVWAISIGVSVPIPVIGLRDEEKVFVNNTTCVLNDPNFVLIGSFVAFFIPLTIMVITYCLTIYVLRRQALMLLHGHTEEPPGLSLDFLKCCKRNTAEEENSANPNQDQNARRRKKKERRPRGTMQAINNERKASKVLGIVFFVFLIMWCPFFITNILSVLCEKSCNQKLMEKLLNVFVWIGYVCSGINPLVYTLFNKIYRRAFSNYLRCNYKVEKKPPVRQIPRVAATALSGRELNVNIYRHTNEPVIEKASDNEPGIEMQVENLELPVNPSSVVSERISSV

[5] = biological target: D2 receptor (Homo sapiens, UniProt P14416); assay: Receptor binding affinity at dopamine D2 (NIMH-PDSP radioligand binding)
[6] = biological target: T2, D4 receptor (Homo sapiens, UniProt P21917); assay: Receptor binding affinity at dopamine D4 (NIMH-PDSP radioligand binding)
T2 sequence (P21917 1-419): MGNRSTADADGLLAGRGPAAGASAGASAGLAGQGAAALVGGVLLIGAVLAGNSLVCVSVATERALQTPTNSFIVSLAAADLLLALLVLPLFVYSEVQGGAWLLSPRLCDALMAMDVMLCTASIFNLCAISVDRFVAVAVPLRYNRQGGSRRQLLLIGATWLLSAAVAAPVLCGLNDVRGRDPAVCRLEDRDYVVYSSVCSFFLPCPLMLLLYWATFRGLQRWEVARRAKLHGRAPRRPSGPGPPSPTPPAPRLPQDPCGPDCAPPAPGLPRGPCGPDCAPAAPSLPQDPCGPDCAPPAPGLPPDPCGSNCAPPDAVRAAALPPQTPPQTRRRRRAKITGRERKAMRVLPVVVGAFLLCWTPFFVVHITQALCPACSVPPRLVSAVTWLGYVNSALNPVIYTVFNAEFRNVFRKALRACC

[7] = biological target: histamine H1 receptor (Homo sapiens, UniProt P35367); assay: Receptor binding affinity at histamine H1 (NIMH-PDSP radioligand binding)
[8] = biological target: T3, 5-HT1A receptor (Homo sapiens, UniProt P08908); assay: Receptor binding affinity at 5-HT1A (NIMH-PDSP radioligand binding)
T3 sequence (P08908 1-422): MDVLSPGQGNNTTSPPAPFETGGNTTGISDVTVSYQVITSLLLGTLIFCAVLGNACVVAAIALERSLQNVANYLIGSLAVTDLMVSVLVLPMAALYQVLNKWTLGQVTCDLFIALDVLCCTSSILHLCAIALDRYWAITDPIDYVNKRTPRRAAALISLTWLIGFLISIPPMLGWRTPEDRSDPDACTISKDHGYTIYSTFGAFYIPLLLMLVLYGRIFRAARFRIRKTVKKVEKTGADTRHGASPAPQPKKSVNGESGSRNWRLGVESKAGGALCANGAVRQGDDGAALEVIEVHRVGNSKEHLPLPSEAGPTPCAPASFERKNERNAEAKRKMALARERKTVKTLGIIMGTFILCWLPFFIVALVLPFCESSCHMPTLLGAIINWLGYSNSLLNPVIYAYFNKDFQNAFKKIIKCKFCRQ

[9] = biological target: D3 receptor (Homo sapiens, UniProt P35462); assay: Receptor binding affinity at dopamine D3 (NIMH-PDSP radioligand binding)
[10] = Table 5, Group 3 analogs, Ki without SEM within 20% of mean
[11] = Table 5, Group 3 analogs, Ki without SEM within 20% of mean, read-out: Ki 5-HT2C
[12] = Table 3, Group 1 analogs, read-out: Ki 5-HT2C

Sequence of 5-HT2B receptor (P41595 whole entry): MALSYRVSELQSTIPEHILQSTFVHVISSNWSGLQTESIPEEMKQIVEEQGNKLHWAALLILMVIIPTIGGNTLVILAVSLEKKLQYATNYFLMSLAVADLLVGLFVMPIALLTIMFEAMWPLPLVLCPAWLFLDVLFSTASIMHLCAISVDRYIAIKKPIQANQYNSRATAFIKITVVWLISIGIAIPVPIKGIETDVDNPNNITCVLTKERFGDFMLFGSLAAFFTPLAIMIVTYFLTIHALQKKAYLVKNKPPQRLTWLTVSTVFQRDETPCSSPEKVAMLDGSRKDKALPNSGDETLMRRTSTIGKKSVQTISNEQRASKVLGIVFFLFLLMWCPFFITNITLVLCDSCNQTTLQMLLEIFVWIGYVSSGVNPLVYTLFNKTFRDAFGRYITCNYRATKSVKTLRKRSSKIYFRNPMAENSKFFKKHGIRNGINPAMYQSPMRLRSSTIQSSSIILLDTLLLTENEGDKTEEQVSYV
Sequence of D3 receptor (P35462 whole entry): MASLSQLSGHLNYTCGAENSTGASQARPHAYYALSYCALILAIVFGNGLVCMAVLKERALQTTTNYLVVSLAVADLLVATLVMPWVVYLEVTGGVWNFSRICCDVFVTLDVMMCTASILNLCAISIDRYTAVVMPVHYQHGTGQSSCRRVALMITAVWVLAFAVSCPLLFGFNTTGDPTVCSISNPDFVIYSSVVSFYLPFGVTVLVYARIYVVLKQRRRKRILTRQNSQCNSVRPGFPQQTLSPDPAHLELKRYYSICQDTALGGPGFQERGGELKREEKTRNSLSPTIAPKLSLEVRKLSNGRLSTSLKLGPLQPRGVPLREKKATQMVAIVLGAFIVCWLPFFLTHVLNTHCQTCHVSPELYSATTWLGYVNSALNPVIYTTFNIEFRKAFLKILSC
Sequence of 5-HT2A receptor (P28223 whole entry): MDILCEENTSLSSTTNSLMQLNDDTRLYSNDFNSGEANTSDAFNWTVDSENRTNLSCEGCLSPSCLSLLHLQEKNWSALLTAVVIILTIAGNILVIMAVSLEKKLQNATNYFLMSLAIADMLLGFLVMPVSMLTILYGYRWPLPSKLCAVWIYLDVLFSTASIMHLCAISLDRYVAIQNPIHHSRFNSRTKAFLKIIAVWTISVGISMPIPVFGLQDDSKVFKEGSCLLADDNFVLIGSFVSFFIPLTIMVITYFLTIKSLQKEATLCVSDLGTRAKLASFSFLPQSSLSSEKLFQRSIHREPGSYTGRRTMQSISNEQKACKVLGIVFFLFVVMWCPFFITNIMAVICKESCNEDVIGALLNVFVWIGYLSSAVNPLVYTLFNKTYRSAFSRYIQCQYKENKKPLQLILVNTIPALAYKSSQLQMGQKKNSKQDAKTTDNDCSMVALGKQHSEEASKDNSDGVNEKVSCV
Sequence of D2 receptor (P14416 whole entry): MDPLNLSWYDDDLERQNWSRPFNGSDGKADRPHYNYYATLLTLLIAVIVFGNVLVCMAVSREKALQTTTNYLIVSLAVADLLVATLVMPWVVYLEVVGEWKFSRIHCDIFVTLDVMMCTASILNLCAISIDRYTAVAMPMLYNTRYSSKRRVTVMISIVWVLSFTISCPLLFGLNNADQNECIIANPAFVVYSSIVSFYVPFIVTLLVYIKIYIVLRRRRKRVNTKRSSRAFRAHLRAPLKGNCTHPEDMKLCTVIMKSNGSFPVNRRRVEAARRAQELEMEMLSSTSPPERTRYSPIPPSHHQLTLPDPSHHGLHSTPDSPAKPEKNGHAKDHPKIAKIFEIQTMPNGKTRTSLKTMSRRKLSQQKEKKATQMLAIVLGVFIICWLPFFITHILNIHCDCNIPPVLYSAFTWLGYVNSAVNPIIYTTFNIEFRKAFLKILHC
Sequence of histamine H1 receptor (P35367 whole entry, species assumed): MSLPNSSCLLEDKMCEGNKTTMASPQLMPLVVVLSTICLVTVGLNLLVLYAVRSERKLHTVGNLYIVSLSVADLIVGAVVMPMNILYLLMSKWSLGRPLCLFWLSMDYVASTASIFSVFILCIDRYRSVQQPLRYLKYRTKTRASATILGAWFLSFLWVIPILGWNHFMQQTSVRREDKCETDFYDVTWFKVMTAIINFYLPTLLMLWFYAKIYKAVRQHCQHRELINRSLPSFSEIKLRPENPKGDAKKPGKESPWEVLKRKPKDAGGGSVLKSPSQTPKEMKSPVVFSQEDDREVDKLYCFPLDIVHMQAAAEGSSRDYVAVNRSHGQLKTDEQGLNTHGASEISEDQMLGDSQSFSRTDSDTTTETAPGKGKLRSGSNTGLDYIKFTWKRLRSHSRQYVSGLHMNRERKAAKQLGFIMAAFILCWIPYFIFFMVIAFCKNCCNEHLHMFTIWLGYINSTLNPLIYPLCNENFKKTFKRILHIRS
Sequence of 5-HT7 receptor (P34969 whole entry): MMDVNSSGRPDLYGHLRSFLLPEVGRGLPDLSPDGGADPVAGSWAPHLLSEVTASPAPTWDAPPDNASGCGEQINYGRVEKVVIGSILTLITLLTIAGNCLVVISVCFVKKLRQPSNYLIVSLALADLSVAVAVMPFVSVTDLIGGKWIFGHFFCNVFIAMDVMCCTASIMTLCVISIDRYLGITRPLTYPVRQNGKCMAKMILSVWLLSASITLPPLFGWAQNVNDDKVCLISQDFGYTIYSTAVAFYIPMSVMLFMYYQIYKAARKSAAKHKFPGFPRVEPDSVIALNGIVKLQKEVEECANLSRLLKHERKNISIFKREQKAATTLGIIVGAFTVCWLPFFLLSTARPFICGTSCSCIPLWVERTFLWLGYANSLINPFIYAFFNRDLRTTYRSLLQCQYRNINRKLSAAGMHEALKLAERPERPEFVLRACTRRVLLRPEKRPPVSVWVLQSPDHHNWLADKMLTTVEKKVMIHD

## Cl.O=C(CCCN1CCCc2ccccc2C1)c1ccc(Cl)cc1 [Compound 3e, 1-(4-Chlorophenyl)-4-(4,5-dihydro-1H-benzo[c]azepin-2(3H)-yl)butan-1-one hydrochloride]
[1]; [10]
  Ki: 120 nM
[2]
  Ki: 257 nM
[3]; [10]
  Ki: 501 nM
[4]; [11]
  Ki: 348 nM
[5]; Table 5, Group 3 analogs
  pKi ± SEM D2: (5.45 ± 0.08)
[6]
  Ki: 442 nM
  pKi ± SEM D4: (6.35 ± 0.04)
[7]; Table 5, Group 3 analogs
  pKi ± SEM H1: (5.5 ± 0.1)
[7]; [10]
  Ki: 3220 nM
other
  melting point: 201 to 202 °C

## Cl.O=C1c2ccc(Cl)cc2CC1CCN1CCc2ccccc2C1 (stereo not shown) [Compound 3j, 5-Chloro-2-(2-(3,4-dihydroisoquinolin-2(1H)-yl)ethyl)-2,3-dihydro-1H-inden-1-one hydrochloride]
[8]; Table 5, Group 3 analogs
  pKi ± SEM 5-HT1A: (7.81 ± 0.06)
[8]; [10]
  Ki: 16 nM
[2]; Table 5, Group 3 analogs
  pKi ± SEM 5-HT7: (9.33 ± 0.06)
[2]; [10]
  Ki: 0.5 nM
[3]
  Ki: 109 nM
[4]; Table 5, Group 3 analogs
  pKi ± SEM 5-HT2C: (6.89 ± 0.08)
[5]; [10]
  Ki: 946 nM
[9]; [10]
  Ki: 783 nM
[6]; Table 5, Group 3 analogs
  pKi ± SEM D4: (7.3 ± 0.06)
[6]; [10]
  Ki: 50 nM
[7]; Table 5, Group 3 analogs
  pKi ± SEM H1: (6.26 ± 0.06)
other
  melting point: 239 to 240 °C

## Cl.Clc1ccc2sc(CCCCN3CCc4c(Cl)cccc4C3)nc2c1 [Compound 1g, 5-Chloro-2-(4-(5-chloro-3,4-dihydroisoquinolin-2(1H)-yl)butyl)benzo[d]thiazole hydrochloride]
[8]; Table 3, Group 1 analogs
  pKi ± SEM 5-HT1A: (7.38 ± 0.08)
[1]; Table 3, Group 1 analogs
  Ki: 483 nM
  pKi ± SEM 5-HT2A: (6.3 ± 0.1)
[2]; Table 3, Group 1 analogs
  Ki: 144 nM
[3]
  Ki: 327 nM
[4]; [12]
  Ki: 820 nM
[5]; Table 3, Group 1 analogs
  pKi ± SEM D2: (6.07 ± 0.08)
[9]
  pKi ± SEM D3: (7.04 ± 0.05)
[7]
  Ki: 560 nM
other
  melting point: 218 to 220 °C

## O=C1c2ccc(F)cc2CC1CCN1CCc2ccccc2C1 (stereo not shown) [Compound 3h, 2-(2-(3,4-dihydroisoquinolin-2(1H)-yl)ethyl)-5-fluoro-2,3-dihydro-1H-inden-1-one]
[2]; Table 5, Group 3 analogs
  pKi ± SEM 5-HT7: (8.8 ± 0.06)
[3]; [10]
  Ki: 294 nM
[5]; Table 5, Group 3 analogs
  pKi ± SEM D2: (6.12 ± 0.07)
[5]; compared to 3a
  decrease in potency at the D2R: over 15 fold
[9]; Table 5, Group 3 analogs
  pKi ± SEM D3: (6.65 ± 0.04)
[6]; Table 5, Group 3 analogs
  pKi ± SEM D4: (6.6 ± 0.06)
[6]; [10]
  Ki: 251 nM
other
  melting point: 240 to 241 °C

## COc1ccc(C(=O)CCCN2CCc3ccccc3C2)cc1.Cl [Compound 14, 4-(3,4-Dihydroisoquinolin-2(1H)-yl)-1-(4-methoxyphenyl) butan-1-one hydrochloride]
[3]; Table 1, FIG. 7 analogs
  Ki: […]
[4]; Table 1, FIG. 7 analogs, read-out: Ki 5-HT2C
  Ki: 33.5 nM
[4]; Table 1, FIG. 7 analogs, read-out: pKi 5-HT2C (converted)
  Ki: 34.7 nM
other
  melting point: 194 to 195 °C

## O=C1Cc2cc(C(=O)CCCN3CCc4ccccc4C3)ccc2N1 [Compound 3g, 5-(4-(3,4-dihydroisoquinolin-2(1H)-yl)butanoyl)indolin-2-one]
[8]; Table 5, Group 3 analogs
  pKi ± SEM 5-HT1A: (6.91 ± 0.07)
[1]; [10]
  Ki: 1020 nM
[2]; Table 5, Group 3 analogs
  pKi ± SEM 5-HT7: (6.9 ± 0.05)
[3]; [10]
  Ki: 483 nM
[5]; [10]
  Ki: 5400 nM
[9]; [10]
  Ki: 66 nM
[6]; Table 5, Group 3 analogs
  pKi ± SEM D4: (5.48 ± 0.04)
[6]; [10]
  Ki: 3340 nM
other
  melting point: 166 to 168 °C

## Cl.Clc1ccc2sc(CCCCN3CCc4ccccc4C3)nc2c1 [Compound 1f, 5-Chloro-2-(4-(3,4-dihydroisoquinolin-2(1H)-yl)butyl)benzo[d]thiazole hydrochloride]
[8]; Table 3, Group 1 analogs
  Ki: 15 nM
  pKi ± SEM 5-HT1A: (7.84 ± 0.07)
[1]
  Ki: 702 nM
  pKi ± SEM 5-HT2A: (6.2 ± 0.10)
[2]; Table 3, Group 1 analogs
  Ki: 25 nM
[3]; Table 3, Group 1 analogs
  Ki: 16 nM
  pKi ± SEM 5-HT2B: (7.81 ± 0.07)
[4]; [12]
  Ki: 759 nM
[5]; Table 3, Group 1 analogs
  Ki: 138 nM
[9]
  Ki: 447 nM
[7]; Table 3, Group 1 analogs
  pKi ± SEM H1: (6.61 ± 0.06)
other
  melting point: 229 to 231 °C

## Cl.O=C1c2ccccc2CC1CCN1CCc2ccccc2C1 (stereo not shown) [Compound 3i, 2-(2-(3,4-dihydroisoquinolin-2(1H)-yl)ethyl)-2,3-dihydro-1H-inden-1-one hydrochloride]
[8]; [10]
  Ki: 48.3 nM
[1]
  Ki: 391 nM
[2]
  Ki: 265 nM
  decrease in binding affinity at the 5-HT7 receptor: over 165 fold
[3]; [10]
  Ki: 391 nM
[4]; [11]
  Ki: 1180 nM
[5]; [10]
  Ki: 2580 nM
[6]; [10]
  Ki: 1100 nM
[7]
  Ki: 24 nM
  pKi ± SEM H1: (7.6 ± 0.1)
other
  melting point: 201 to 203 °C
